Reference: patent US11679107B2 (Eisai R&D Management Co., Ltd., priority 2018, dated 2023)
Like-named read-outs stand apart in the source and are kept apart here.

Assays:
[1] = tested on: Ad2 variant pre-mRNAs spliced in HeLa S3 nuclear extracts; experiment: In vitro splicing assay (IVS), RT-qPCR of spliced product; assay type: biochemical; details: for IC50: geometric mean; for Ratio Ad2.1/2.2: ratio of IVS IC50 Ad2.1 to Ad2.2
How it was run: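 Read-out is one-step TaqMan RT-qPCR of spliced Ad2 mRNA with Ftz as reference, normalized to DMSO and fit by non-linear regression. Reactions held HeLa S3 nuclear extract, 2 ng Ad2-derived pre-mRNA and test compound, with 15 min preincubation. Splicing was started with ATP-containing activation buffer and run 90 min at 30 °C.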

[2] = target: T1, SF3b complexes (Homo sapiens, UniProt O75533+Q7RTV0); experiment: Scintillation proximity assay (SPA) with [3H]-labelled pladienolide probe; assay type: binding; details: SF3B1 (WT); geometric mean; read-out: SPA-ATS GMean IC50 (nM) SF3B1 (WT)
T1 construct: endogenous in cells; host or cells: Nuclear extracts; A HeLa S3 extract preparation is described for the in vitro splicing assay
How it was run: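 SF3b complexes captured from nuclear extracts on anti-SF3B1 antibody SPA beads; test compounds pre-incubated 30 min before 2.5 nM [3H]-pladienolide probe added, then 30 min incubation. Bound probe read by scintillation; values from non-linear regression of concentration–response curves.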

[3] = tested on: Panc 05.04 cells (SF3b K700E mutant); experiment: Cell proliferation and viability, CellTiter-Glo, 72 hours; assay type: cell-based; details: PANC0504.1; for CTGlo-ATS Mean MinResponse % 72 h PANC0504.1: -100% = cidal, 0% = static, 100% = uninhibited growth; for GI50: geometric mean
How it was run: (§1)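 ATP luminescence (CellTiter-Glo) was measured 72 h after treatment with compound at 10 μM–100 pM (11 points, half-log) in 0.1% DMSO. The Panc line was grown in RPMI-1640 plus insulin and 15% FBS, the other in 10% FBS. Data were normalised to time zero and vehicle controls, where −100% is cidal and 0% static.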

[4] = tested on: NCI-H1568 cells (high MCL1); experiment: as above; assay type: cell-based; details: NCIH1568.1; for CTGlo-ATS Mean MinResponse % 72 h NCIH1568.1: -100% = cidal, 0% = static, 100% = uninhibited growth; for GI50: geometric mean
How it was run: as §1

[5] = Ad2.1 pre-mRNA substrate, read-out: qPCR-IVS-ATS GMean IC50 (nM) Ad2.1
[6] = Ad2.2 pre-mRNA substrate, read-out: qPCR-IVS-ATS GMean IC50 (nM) Ad2.2
[7] = Panc 05.04, read-out: CTGlo-ATS GMean GI50 (nM) 72 h PANC0504.1, 72 h
[8] = NCI-H1568, read-out: CTGlo-ATS GMean GI50 (nM) 72 h NCIH1568.1, 72 h
[9] = Panc 05.04, 72 h, read-out: CTGlo-ATS GMean GI50 (nM) 72 h PANC0504.1, 72 h
[10] = NCI-H1568, 72 h, read-out: CTGlo-ATS GMean GI50 (nM) 72 h NCIH1568.1, 72 h

| Structure (SMILES) | IC50 [1, 5] | IC50 [1, 6] | Ratio Ad2.1/2.2 [1] | IC50 [2] | CTGlo-ATS Mean MinResponse % 72 h PANC0504.1 ([3]; 72 h) | GI50 [3, 7] | CTGlo-ATS Mean MinResponse % 72 h NCIH1568.1 ([4]; 72 h) | GI50 [4, 8] | GI50 [3, 9] | GI50 [4, 10] |
| --- | --- | --- | --- | --- | --- | --- | --- | --- | --- | --- |
| C/C(=C\c1cccc(S(=O)(=O)N2CC(F)(F)C2)c1)[C@H]1OC(=O)C[C@H](O)CC[C@H](C)[C@@H](OC(=O)N2CCN(C)CC2)/C=C/[C@@H]1C [Compound 206, [(2S,3S,4E,6R,7S,10R)-2-[(E)-1-[3-(3,3-difluoroazetidin-1-yl)sulfonylphenyl]prop-1-en-2-yl]-10-hydroxy-3,7-dimethyl-12-oxo-1-oxacyclododec-4-en-6-yl] 4-methylpiperazine-1-carboxylate] | > 25000 nM | 113 nM | 221.630 | 1.81 nM | −83.659% | 62.3 nM | −57.585% | 72.2 nM |  |  |
| C/C(=C\c1ccc(C)c(N2CCCC2=O)c1)[C@H]1OC(=O)C[C@H](O)CC[C@H](C)[C@@H](OC(=O)N2CCN(C)CC2)/C=C/[C@@H]1C [Compound 207, [(2S,3S,4E,6R,7S,10R)-10-hydroxy-3,7-dimethyl-2-[(E)-1-[4-methyl-3-(2-oxopyrrolidin-1-yl)phenyl]prop-1-en-2-yl]-12-oxo-1-oxacyclododec-4-en-6-yl] 4-methylpiperazine-1-carboxylate] | 22.5 nM | 15.5 nM | 1.451 | 3.46 nM | −92.266% | 15.1 nM | −63.380% | 16.9 nM |  |  |
| C/C(=C\c1cccc(S(=O)(=O)NC(C)(C)C)c1)[C@H]1OC(=O)C[C@H](O)CC[C@H](C)[C@@H](OC(=O)N2CCN(C)CC2)/C=C/[C@@H]1C [Compound 208, [(2S,3S,4E,6R,7S,10R)-2-[(E)-1-[3-(tert-butylsulfamoyl)phenyl]prop-1-en-2-yl]-10-hydroxy-3,7-dimethyl-12-oxo-1-oxacyclododec-4-en-6-yl] 4-methylpiperazine-1-carboxylate] | 1380 nM | 25.1 nM | 54.813 | 1.77 nM | −94.342% | 9.27 nM | −47.371% | 11.6 nM |  |  |
| C/C(=C\c1cccc(S(=O)(=O)N2CCN(C)CC2)c1)[C@H]1OC(=O)C[C@H](O)CC[C@H](C)[C@@H](OC(=O)N2CCN(C)CC2)/C=C/[C@@H]1C [Compound 211, [(2S,3S,4E,6R,7S,10R)-10-hydroxy-3,7-dimethyl-2-[(E)-1-[3-(4-methylpiperazin-1-yl)sulfonylphenyl]prop-1-en-2-yl]-12-oxo-1-oxacyclododec-4-en-6-yl] 4-methylpiperazine-1-carboxylate] | 651 nM | 83.4 nM | 7.806 | 11.9 nM | −91.820% | 47.6 nM | −52.358% | 60.6 nM |  |  |
| C/C(=C\c1cccc(S(=O)(=O)N2CCCCC2)c1)[C@H]1OC(=O)C[C@H](O)CC[C@H](C)[C@@H](OC(=O)N2CCN(C)CC2)/C=C/[C@@H]1C [Compound 213, [(2S,3S,4E,6R,7S,10R)-10-hydroxy-3,7-dimethyl-12-oxo-2-[(E)-1-(3-piperidin-1-ylsulfonylphenyl)prop-1-en-2-yl]-1-oxacyclododec-4-en-6-yl] 4-methylpiperazine-1-carboxylate] | 9.84 nM | 7.96 nM | 1.236 | 3.23 nM | −85.603% | 3.2 nM | −64.116% | 6.03 nM |  |  |
| C/C(=C\c1cccc(S(=O)(=O)N2CCCC2)c1)[C@H]1OC(=O)C[C@H](O)CC[C@H](C)[C@@H](OC(=O)N2CCN(C)CC2)/C=C/[C@@H]1C [Compound 214, [(2S,3S,4E,6R,7S,10R)-10-hydroxy-3,7-dimethyl-12-oxo-2-[(E)-1-(3-pyrrolidin-1-ylsulfonylphenyl)prop-1-en-2-yl]-1-oxacyclododec-4-en-6-yl] 4-methylpiperazine-1-carboxylate] | 3920 nM | 19.2 nM | 204.217 | 2.3 nM | −91.986% |  | −48.793% |  | 3.29 nM | 6.37 nM |
| C/C(=C\c1cccc(S(=O)(=O)C2CC2)c1)[C@H]1OC(=O)C[C@H](O)CC[C@H](C)[C@@H](OC(=O)N2CCN(C)CC2)/C=C/[C@@H]1C [Compound 215, [(2S,3S,4E,6R,7S,10R)-2-[(E)-1-(3-cyclopropylsulfonylphenyl)prop-1-en-2-yl]-10-hydroxy-3,7-dimethyl-12-oxo-1-oxacyclododec-4-en-6-yl] 4-methylpiperazine-1-carboxylate] | 20500 nM | 50.7 nM | 403.817 | 6.83 nM | −81.853% |  | −42.412% |  | 20 nM | 25 nM |
| C/C(=C\c1cccc(NS(=O)(=O)C2CC2)c1)[C@H]1OC(=O)C[C@H](O)CC[C@H](C)[C@@H](OC(=O)N2CCN(C)CC2)/C=C/[C@@H]1C [Compound 216, [(2S,3S,4E,6R,7S,10R)-2-[(E)-1-[3-(cyclopropylsulfonylamino)phenyl]prop-1-en-2-yl]-10-hydroxy-3,7-dimethyl-12-oxo-1-oxacyclododec-4-en-6-yl] 4-methylpiperazine-1-carboxylate] | 11100 nM | 35.7 nM | 309.648 | 3.32 nM | −85.005% | 29 nM | −32.014% | 47.2 nM |  |  |
| C/C(=C\c1cc(F)cc(N2CC[C@H](NS(C)(=O)=O)C2)c1)[C@H]1OC(=O)C[C@H](O)CC[C@H](C)[C@@H](OC(=O)N2CCN(C)CC2)/C=C/[C@@H]1C [Compound 217, [(2S,3S,4E,6R,7S,10R)-2-[(E)-1-[3-fluoro-5-[(3S)-3-(methanesulfonamido)pyrrolidin-1-yl]phenyl]prop-1-en-2-yl]-10-hydroxy-3,7-dimethyl-12-oxo-1-oxacyclododec-4-en-6-yl] 4-methylpiperazine-1-carboxylate] | 18.4 nM | 16.6 nM | 1.107 | 3.18 nM | −91.288% | 15 nM | −71.339% | 13.8 nM |  |  |
| C/C(=C\c1cc(F)cc(N2CCN(C(=O)Cn3cccn3)CC2)c1)[C@H]1OC(=O)C[C@H](O)CC[C@H](C)[C@@H](OC(=O)N2CCNCC2)/C=C/[C@@H]1C [Compound 235, [(2S,3S,4E,6R,7S,10R)-2-[(E)-1-[3-fluoro-5-[4-(2-pyrazol-1-ylacetyl)piperazin-1-yl]phenyl]prop-1-en-2-yl]-10-hydroxy-3,7-dimethyl-12-oxo-1-oxacyclododec-4-en-6-yl] piperazine-1-carboxylate] | 16 nM | 15.1 nM | 1.057 | 5.56 nM | −84.459% |  | −84.925% |  | 1.94 nM | 2.35 nM |
| C/C(=C\c1cc(F)cc(N2CCOCC2)c1)[C@H]1OC(=O)C[C@H](O)CC[C@H](C)[C@@H](OC(=O)NCCCN2CCOCC2)/C=C/[C@@H]1C [Compound 241, [(2S,3S,4E,6R,7S,10R)-2-[(E)-1-(3-fluoro-5-morpholin-4-ylphenyl)prop-1-en-2-yl]-10-hydroxy-3,7-dimethyl-12-oxo-1-oxacyclododec-4-en-6-yl] N-(3-morpholin-4-ylpropyl)carbamate] | > 25000 nM | 130 nM | 191.917 | 20.5 nM | −88.873% |  | −59.521% |  | 120 nM | 225 nM |
